Measured values taken from patent US6764768B2, “Controlled release composition” (Arch Development Corporation, priority 2001, dated 2004).

What was measured:
[1] = system: streptavidin; assay: SPR measurement of streptavidin association with the biotin-presenting monolayer; assay type: binding; conditions: biotin 140 μM mixed with streptavidin before introduction to the SAM
Source text: The following sequence was used to measure the association of proteins to the monolayers: buffer (phosphate buffered saline, pH 7.4) was flowed over the monolayer for three minutes to establish a baseline; a solution of protein in the same buffer was flowed over the surface for eight minutes to observe binding; buffer was again flowed for four minutes to quantitate the amount of protein that remained bound. […] (SPR measures the angle of light (θ) reflected from the backside of the gold substrate that is a minimum in intensity. Changes in this angle (Δθ) are linearly related to the index of refraction of the solution above the surface and therefore to the density of adsorbed protein (Δθof 0.10°=1 ng/mm^2). Experiments show a change in θ immediately following protein injection due to differences in refractive index between the two solutions.) The change in resonance angle (Δθ) after streptavidin was flowed over the substrate corresponds to a final protein density of 1.1 ng/mm^2. The protein remained irreversibly bound because of the high affinity of the streptavidin-biotin complex.
Electrochemistry was performed in buffered water (PBS, pH 7.4) using the gold substrate as the working electrode, a platinum wire as the counter electrode, and a Ag/AgCl/KCl reference electrode—prior to mounting the substrate in a cartridge for analysis by SPR. […]

[2] = system: Swiss 3T3 fibroblast cells; assay: Adhesion and electrically or peptide-triggered release of cells on patterned RGD monolayer; assay type: cell-based
Protocol: The substrate was patterned into two regions that each presented the RGD peptide at a density of less than 0.1% mixed with tri(ethylene glycol) groups. The pattern was formed by applying an alkanethiol solution (corresponding to FIG. 5A) for 5 min to a gold-coated glass substrate, half of which was blocked with a polydimethylsiloxane mask. Following rinsing, the mask was removed, and the substrate was incubated in a solution of a second alkanethiol (corresponding to FIG. 5B) for 6 h. In all cases, the monolayers were formed from ethanolic solutions containing a mixture of an alkanethiol substituted with tri(ethylene glycol) and an alkanethiol substituted with either RGD or the RGD containing alkanethiol of the present invention, in a ratio of 999: 1. The two regions differed only in the linkage used to tether the peptides to the monolayer (C. Roberts, C. S. Chen, M. Mrksich, V. Martichonok, D. E. Ingber, G. M. Whitesides, J. Am. Chem. Soc. 1998, 120, 6548-6555; and B. T. Houseman, M. Mrksich, J. Org. Chem. 1998, 63, 7552-7555).
This substrate was placed into cell culture media and a suspension of Swiss 3T3 fibroblast cells was added. The Swiss Albino 3T3 cells (ATCC, Rockville, Md.) were grown in Dulbecco's Modified Eagle Medium (DMEM) containing 10% fetal bovine serum and penicillin/streptomycin. All cultures were maintained at 37° C. in a humidified 10% CO2 atmosphere. […]

Compound	binding of streptavidin to the SAM when streptavidin was mixed with biotin [1]	cells released from the surface by soluble peptide ([2]; 2 mM in fresh media, 37° C. for 20 minutes, after electrical treatment)	detachment of cells by soluble peptide prior to electrical treatment ([2]; patterned substrate, both regions, prior to electrical treatment)
O=C(O)CCCC[C@@H]1SC[C@@H]2NC(=O)N[C@@H]21 [biotin]	no binding of the protein to the surface	–	–
Gly-Arg-Gly-Asp-Ser (GRGDS; printed: Gly-Arg-Gly-Asp-Ser)	–	greater than 95%	near complete detachment of cells from both regions
